# Experimental data reported in paper PMC13192270, “RhlR quorum-sensing receptor ligand sensitivity regulates the differential expression of phenazine genes in Pseudomonas aeruginosa” (Journal of Bacteriology, 2026).
# Legend:
# pyocyanin production = conditions: cited from earlier work
# [1] = test system: ΔrhlI strain expressing WT RhlR; assay: RNA-seq gene expression; type: cell-based, Pseudomonas aeruginosa; design: opmD Expression value / mexI Expression value / mexH Expression value / mexG Expression value / lasB Expression value / rhlA Expression value / rhlB Expression value / rhlR Expression value / lecB Expression value / fhp Expression value / chiC Expression value / hcnA Expression value / mvfR Expression value / katB Expression value / norC Expression value / norB Expression value / katA Expression value: unit not given here; conditions: 2 µM C4HSL
# Protocol: To determine the effects of hypo- and hypersensitivity to C4HSL on RhlR-dependent transcription activation in P. aeruginosa, we performed RNA-seq on ΔrhlI strains expressing WT RhlR, RhlR T58L, and RhlR A44M in the presence of 2 µM C4HSL. We chose this approach to better control the levels of C4HSL across samples. All gene expression analyses were done relative to a ΔrhlI strain without exogenous supplementation of AHL. Thus, we examined the total increase in C4HSL-dependent gene regulation. We observed increased rhlA RNA levels in strains expressing WT RhlR and the RhlR T58L variant compared to ΔrhlI without C4HSL or a strain expressing the RhlR A44M variant (Table 2; Table S1). […] To corroborate our RNA-seq data, we built an rhlA promoter fusion to mScarlet and assayed reporter levels in the same genetic backgrounds as our transcriptomic experiment (Fig. S7D). Strains expressing hypersensitive RhlR variants produced similar levels of fluorescent signal relative to the WT strain, while a strain expressing a hyposensitive RhlR variant had diminished levels of fluorescent reporter (Fig. S7D).
# A total of […] of overnight cultures was back diluted 1:100 in 20 mL of fresh LB media and incubated for 5 h at 37°C with shaking. Cells were harvested by centrifugation, and pellets were frozen until RNA extraction. RNA was extracted using the Invitrogen PureLink RNA Mini Kit. Pellets were resuspended in 100 µL lysozyme solution containing 10 mM Tris-HCl pH 8.0, 0.1 mM EDTA, and 1 mg/mL lysozyme. Five microliters of 1% SDS was added, and the solution was mixed with a vortex and incubated at room temperature for 5 min. A total of 350 µL lysis buffer (Invitrogen) was added with 10 µL 2-mercaptoethanol for each 1 mL of lysis buffer and vortexed. Cells were lysed by bead beating (BioSpec 0.1 MM Zirconia/Silica Beads) for two rounds of 50 s. Lysed cells were transferred to fresh microcentrifuge tubes with 250 µL of 100% ethanol and mixed with a vortex. Samples were spun in spin cartridges (Invitrogen) at 12,000 × g for 15 s at room temperature, and the flow-through was discarded. A total of 700 µL Wash Buffer I (Invitrogen) was added and spun at 12,000 × g for 15 s at room temperature, and the flow-through was discarded. A total of 500 µL Wash Buffer II (Invitrogen) with ethanol was added and centrifuged for 12,000 × g for 15 s at room temperature; the flow-through was discarded, and RNA samples were washed again. Cells were spun at 12,000 × g for 1 min at room temperature to dry the membrane with the bound RNA. A total of 50 µL RNAse-free water was added to the center of the spin cartridge, incubated at room temperature for 1 min, and centrifuged for 2 min at ≥12,000 × g at room temperature. Extracted RNA was then frozen at −80°C until further use.
# Bulk RNA was sent to SeqCenter (Pittsburgh, PA) where it was processed for paired-end Illumina sequencing via rRNA depletion using Ribo-Zero Plus (Illumina). Fastq files generated by SeqCenter were processed using Rockhopper with default settings ([61][–][63]). Briefly, fastq files were aligned to the genome of Pseudomonas aeruginosa UCBPP-PA14. The reads were subsequently normalized using upper-quartile normalization, and transcript abundance was determined by reads per kilobase per million mapped reads. Differential gene expression analysis was conducted using a negative binomial distribution model, outputting a P-value for each transcript. The P-values were then corrected for false discovery using the Benjamini-Hochberg procedure, resulting in the q-values reported here (Table S2). SignalMap v2.0 (NimbleGen Systems) was used to visualize read counts for phzABCDEFG1/2, phzH, phzM, and phzS (Fig. 5). Aligned sequences generated in Rockhopper were converted to GFF files, and genes of interest were isolated into unique GFF files ([37]).
smiles,measurement,setting,value
"CCCC(=O)N[C@H]1CCOC1=O [C4HSL, N-butyryl-L-homoserine lactone]",C4HSL concentration above which pyocyanin production is lost,pyocyanin production,> 5 µM
same,C4HSL concentration below which pyocyanin production is lost,pyocyanin production,< 500 nM
same,chiC Expression value,[1],"3,525,171.5"
same,fhp Expression value,[1],"641,438"
same,hcnA Expression value,[1],"44,841"
same,katA Expression value,[1],"14,093,439.5"
same,katB Expression value,[1],"3,028,118.5"
same,lasB Expression value,[1],"19,914,902.5"
same,lecB Expression value,[1],"366,190"
same,mexG Expression value,[1],"516,840.5"
same,mexH Expression value,[1],"903,148"
same,mexI Expression value,[1],"920,093.5"
same,mvfR Expression value,[1],"301,183"
same,norB Expression value,[1],"6,989,112.5"
same,norC Expression value,[1],"3,120,586.5"
same,opmD Expression value,[1],"631,843.5"
same,phnA Expression value,[1],"1,160,599.5"
same,phnB Expression value,[1],"350,722"
same,phzA1 Expression value,[1],"15,501"
same,phzA2 Expression value,[1],"238,645"
same,phzB1 Expression value,[1],"218,602.5"
same,phzB2 Expression value,[1],"4,517,504"
same,phzC1 Expression value,[1],"655,136.5"
same,phzC2 Expression value,[1],"4,730,067"
same,phzD1 Expression value,[1],"2,329,509"
same,phzD2 Expression value,[1],"2,063,245.5"
same,phzE1 Expression value,[1],"4,232,986.5"
same,phzE2 Expression value,[1],"3,213,651.5"
same,phzF1 Expression value,[1],"1,981,300.5"
same,phzF2 Expression value,[1],"1,982,482"
same,phzG1 Expression value,[1],"560,110.5"
same,phzG2 Expression value,[1],"2,035,315"
same,phzM Expression value,[1],"184,602"
same,phzS Expression value,[1],"726,300.5"
same,pqsA Expression value,[1],"1,089,687.5"
same,pqsB Expression value,[1],"2,286,881.5"
same,pqsC Expression value,[1],"2,211,818.5"
same,pqsD Expression value,[1],"2,409,895"
same,pqsE Expression value,[1],"1,210,331"
same,rhlA Expression value,[1],"1,118,561.5"
same,rhlB Expression value,[1],"1,056,112.5"
same,rhlR Expression value,[1],"1,082,023"
same,chiC Log2fold change,[1]; vs ΔrhlI without AHL,4.67
same,fhp Log2fold change,[1]; vs ΔrhlI without AHL,6.375
same,hcnA Log2fold change,[1]; vs ΔrhlI without AHL,0.4821
same,katA Log2fold change,[1]; vs ΔrhlI without AHL,2.183
same,katB Log2fold change,[1]; vs ΔrhlI without AHL,7.942
same,lasB Log2fold change,[1]; vs ΔrhlI without AHL,2.638
same,lecB Log2fold change,[1]; vs ΔrhlI without AHL,0.03694
same,mexG Log2fold change,[1]; vs ΔrhlI without AHL,6.993
same,mexH Log2fold change,[1]; vs ΔrhlI without AHL,6.553
same,mexI Log2fold change,[1]; vs ΔrhlI without AHL,5.716
same,mvfR Log2fold change,[1]; vs ΔrhlI without AHL,0.3556
same,norB Log2fold change,[1]; vs ΔrhlI without AHL,7.423
same,norC Log2fold change,[1]; vs ΔrhlI without AHL,7.283
same,opmD Log2fold change,[1]; vs ΔrhlI without AHL,6.473
same,phnA Log2fold change,[1]; vs ΔrhlI without AHL,−0.9963
same,phnB Log2fold change,[1]; vs ΔrhlI without AHL,−0.7095
same,phzA1 Log2fold change,[1]; vs ΔrhlI without AHL,−0.9521
same,phzA2 Log2fold change,[1]; vs ΔrhlI without AHL,4.504
same,phzB1 Log2fold change,[1]; vs ΔrhlI without AHL,−0.627
same,phzB2 Log2fold change,[1]; vs ΔrhlI without AHL,4.419
same,phzC1 Log2fold change,[1]; vs ΔrhlI without AHL,1.576
same,phzC2 Log2fold change,[1]; vs ΔrhlI without AHL,4.692
same,phzD1 Log2fold change,[1]; vs ΔrhlI without AHL,3.417
same,phzD2 Log2fold change,[1]; vs ΔrhlI without AHL,3.452
same,phzE1 Log2fold change,[1]; vs ΔrhlI without AHL,3.384
same,phzE2 Log2fold change,[1]; vs ΔrhlI without AHL,3.413
same,phzF1 Log2fold change,[1]; vs ΔrhlI without AHL,3.113
same,phzF2 Log2fold change,[1]; vs ΔrhlI without AHL,3.107
same,phzG1 Log2fold change,[1]; vs ΔrhlI without AHL,1.459
same,phzG2 Log2fold change,[1]; vs ΔrhlI without AHL,4.193
same,phzM Log2fold change,[1]; vs ΔrhlI without AHL,−0.9094
same,phzS Log2fold change,[1]; vs ΔrhlI without AHL,−0.04329
same,pqsA Log2fold change,[1]; vs ΔrhlI without AHL,−1.279
same,pqsB Log2fold change,[1]; vs ΔrhlI without AHL,−0.7204
same,pqsC Log2fold change,[1]; vs ΔrhlI without AHL,−0.7931
same,pqsD Log2fold change,[1]; vs ΔrhlI without AHL,−0.874
same,pqsE Log2fold change,[1]; vs ΔrhlI without AHL,−1.056
same,rhlA Log2fold change,[1]; vs ΔrhlI without AHL,2.147
same,rhlB Log2fold change,[1]; vs ΔrhlI without AHL,2.998
same,rhlR Log2fold change,[1]; vs ΔrhlI without AHL,0.762
